Source: patent US5514648A, “Fungicidally active compounds” (priority 1990, dated 1996)
Where a SMILES comes first, the peptide text is derived from it. [ ]: non-standard residue; d: D form. NMeI = CC[C@H](C)[C@H](NC)C(=O)O; NMeD = CN[C@@H](CC(=O)O)C(=O)O; NMeV = CN[C@H](C(=O)O)C(C)C; Pip = O=C(O)[C@@H]1CCCCN1; dLac = C[C@@H](O)C(=O)O

Columns and labels:
[1] = Temperature and pH stability (HPLC); type: physicochemical; details: buffer, 16 hours
Procedure: Procedure: The compound BK202 was solubilized in buffer at the pHs indicated in FIG. 1, and then placed at 25°-55° C. for 16 hours. The buffers used were phosphate-citrate (T. C. McIlvaine, J. Biol. Chem. 49,183(1921), in the pH range 2.5-7 and from pH 7-9.5 is used TRIS 0.05 M. After 16 hours, the samples were filtered on a membrane filter 0.45 μm, and then analyzed by the HPLC method.
However, this may reside in experimental error.
Column: Spherisorb Hexyl 5 μm, 140 mm×4.6 mm
Eluent: 55% Acetonitrile +0.1% Trifluor acetic Acid
Retention time: ca. 6.3 minutes

[2] = Ames spot tests; type: cell-based; details: crystalline compound
Source text: The toxicity of BK 202 was investigated in the following tests using the compound of formula IV in crystaline form: […]
Ames spot tests and in vitro testing of dermal irritation (Skintex®).

[3] = Toxicology IC50, ATP; details: estimated
Procedure: Based on these tests the IC50 values for BK 202 were estimated as: ATP >10 μg/ml;

[4] = test system: C. beticola; test: Fungicidal activity, mycelial growth on potato dextrose agar; type: cell-based, Cercospora beticola; details: 25 to 0.0016 μg a.i. per ml agar, 3 to 6 days
Procedure: (§1) Experiments were carried out to determine the potency of the compound of formula IV towards various fungi. The active ingredient was dissolved in 60% ethanol and added to cooled potato dextrose agar to give final concentrations of 25, 5, 1, 0.2, 0.04 and 0.0016 μg a.i. per ml agar, respectively. Control dishes contained no active ingredient.
(§2) 10 ml Agar was poured into 9 cm petri dishes and each concentration was inoculated with actively growing mycelium of the fungal isolates tested for. The dishes were incubated at the optimum temperature for growth of the isolates for 3 to 6 days after which time the growth was measured in mm and compared to the controls.
(§3) The test isolates covered a broad range of fungi within the Oomycetes, the Ascomycetes, the Basidiornycetes, the Deuterornycetes, and the Zygomycetes.

[5] = test system: P. sorghina; test: as above; type: cell-based, Phoma sorghina; details: 25 to 0.0016 μg a.i. per ml agar, 3 to 6 days
Procedure: as §1, §2, §3

[6] = test system: Zygomycetous species; test: as above; type: cell-based, Zygomycetes; details: 25 to 0.0016 μg a.i. per ml agar
Procedure: as §1, §2, §3

[7] = test system: Oornycetous species; test: as above; type: cell-based, Oomycetes; details: 25 to 0.0016 μg a.i. per ml agar
Procedure: as §1, §2, §3

[8] = test system: Basidiornycetous species; test: as above; type: cell-based, Basidiornycetes; details: 25 to 0.0016 μg a.i. per ml agar
Procedure: as §1, §2, §3

[9] = test system: Ascomycetous species; test: as above; type: cell-based, Ascomycetes; details: 25 to 0.0016 μg a.i. per ml agar
Procedure: as §1, §2, §3

[10] = test system: plants; test: Phytotoxic activity on plants; type: in vivo; details: at the concentrations used in Examples 1 to 7
[11] = test system: Botrytis cinerea; test: Field trial, Botrytis cinerea on grapes (Ugni Blanc); type: in vivo; details: 100, 300, and 900 g a.i./ha, three sprayings
Source text: Field trial performed in Bordeaux, France, in accordance with CEB Method No. 37. A plot consisted of 15 plants in one row and six replicates were used. The active compound was used in a test formulation containing approximately 10% active ingredient (a.i.). Three concentrations of active compound were applied: 100, 300, and 900 g a.i./ha. The water volume was 300 l/ha. The grapes were sprayed at the following growth stages: T1, end of formation of bunches of grapes; T2, beginning of ripening of grapes; and T3, 3 to 4 weeks before harvest. The commercial fungicides […]® and BASULTRA® were used as standard references. The assessment was performed by estimating the intensity and frequency of the Botrytis cinerea attack after the appearance of the disease.

[12] = test system: Botrytis cinerea; test: Green house trial, Botrytis cinerea on tomatoes (Matador); type: in vivo; details: at all the tested concentrations 0.01%, 0.03%, and 0.09% a.i.
Source text: Green house trial performed in Lyngby, Denmark.
A plot consisted of 7 plants (approximately 12 weeks old, 1 m high) and three replicates were used. The plants were kept in a plastic "tent" to maintain a high humidity. Before spraying the plants 20 leaves per plant were mechanically injured to improve the attack of Botrytis cinerea. The active compound was used in a test formulation containing approximately 10% active ingredient (a.i.). Three concentrations of active compound were applied: 0.01%, 0.03%, and 0.09% a.i. The water volume was 770 ml/plot.
The tomatoes were sprayed just after wounding the leaves. 24 hours after fungicide treatment an artificial inoculation was done by spraying spores of B. cinerea suspended in 30% orange juice on the plants.
The commercial fungicide RONILAN®was used as standard reference.
The assessment was performed by counting the number of attacks on leaves, stalks, fruits, and flower buds.

[13] = test system: Botrytis cinerea isolate A (resistant to BENLATE®); test: In vitro agar growth assay, fungicide resistant Botrytis cinerea; type: cell-based; details: 3 days, 25 C, control 76
Procedure: (§4) Activity against fungicide resistant Botrytis cinerea isolates One isolate resistant to BENLATE® (isolate A), and one isolate resistant to BENLATE®,ROVRAL® and SUMISCLEX® (isolate B) were isolated from plants which had been sprayed with the above mentioned pesticides. The effect of BK 202 on these isolates was determined in an in vitro assay and compared with the three commercial pesticides. The fungicides were added to agar and dispensed in petri dishes at different concentrations and were inoculated with a sensitive (normal(isolate C)) and the two resistant strains. After 3 days at a temperature of 25 C growth was measured in mm.

[14] = test system: Botrytis cinerea isolate B (resistant to BENLATE®, ROVRAL® and SUMISCLEX®); test: as above; type: cell-based; details: 3 days, 25 C, control 80
Procedure: as §4

[15] = concentration 0.125 (unit not given)
[16] = concentration 2 (unit not given)
[17] = concentration 10 (unit not given)

SMILES: CC[C@H](C)[C@H]1C(=O)NCC(=O)N(C)[C@@H](C(C)C)C(=O)N[C@@H](Cc2ccc(OC)cc2)C(=O)O[C@H](C)C(=O)N2CCCC[C@H]2C(=O)N(C)[C@@H](C(C)C)C(=O)N[C@@H](C(C)C)C(=O)N(C)[C@@H](CC(=O)O)C(=O)N(C)[C@@H](C(C)C)C(=O)N1C [BK 202, cyclo- Pec-MeVal-Val-MeAsp-MeVal-MeIle-Gly-MeVal-TyrOMe-D-Lact!] (cyclo(G[NMeV]Y(Me)[dLac][Pip][NMeV]V[NMeD][NMeV][NMeI]))
- stability at pH values above 8 ([1]; 25°-55° C.): decreases rapidly
- stability optimum (pH) ([1]; 25°-55° C., stability seems independent of temperature): ~7
- stability at pH values below 7 ([1]; except at 25° C., where the decrease seems rapid (possibly experimental error)): decreases slowly
- Ames spot tests [2]: no indication of toxicity
- IC50, ATP [3]: > 10 µg/mL
- inhibition of growth [4]: weaker
- inhibition of growth [5]: weaker
- fungicidal activity [6]: Only weak activity
- fungicidal activity [7]: practically no activity
- fungicidal activity [8]: practically no activity
- fungicidal activity [9]: most active
- phytotoxic activity [10]: no phytotoxic activity has been observed
- fungicidal effect (intensity of infection, FIG. 9) compared to both RONILAN® and BASULTRA® [11]: superior
- fungicidal effect (degree of infection, FIG. 10) compared to RONILAN® [12]: superior
- growth, Isolate A [13, 15]: 0 mm
- growth, Isolate A [13, 16]: 0 mm
- growth, Isolate A [13, 17]: 0 mm
- growth, Isolate B [14, 15]: 0 mm
- growth, Isolate B [14, 16]: 0 mm
- growth, Isolate B [14, 17]: 0 mm
